Experimental findings from PMC11235583, “Structural basis of odor sensing by insect heteromeric odorant receptors” (Science (New York, N.Y.), 2024) are described below.

Experiment [1] has as its target T1, AaOR10/Orco (Ae. aegypti OR10 with A. bakeri Orco) (Aedes aegypti, UniProt Q177X3).
T1 construct: gene GPRor10; co-expressed in HEK293 cells; with Odorant receptor coreceptor (Apocrypta bakeri)
T1 sequence (Q177X3 1-375): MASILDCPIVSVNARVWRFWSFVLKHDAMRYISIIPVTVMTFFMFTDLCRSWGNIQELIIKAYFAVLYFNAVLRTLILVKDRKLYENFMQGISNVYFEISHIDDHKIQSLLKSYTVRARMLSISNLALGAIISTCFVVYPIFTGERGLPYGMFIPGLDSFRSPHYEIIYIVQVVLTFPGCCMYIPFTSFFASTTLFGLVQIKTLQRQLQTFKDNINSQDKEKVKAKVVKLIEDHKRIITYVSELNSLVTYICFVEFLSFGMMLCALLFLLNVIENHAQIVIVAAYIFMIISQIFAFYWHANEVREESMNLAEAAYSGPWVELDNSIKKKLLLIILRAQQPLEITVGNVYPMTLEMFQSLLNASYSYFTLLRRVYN
T1 sequence (B0FAQ4 1-474 partner): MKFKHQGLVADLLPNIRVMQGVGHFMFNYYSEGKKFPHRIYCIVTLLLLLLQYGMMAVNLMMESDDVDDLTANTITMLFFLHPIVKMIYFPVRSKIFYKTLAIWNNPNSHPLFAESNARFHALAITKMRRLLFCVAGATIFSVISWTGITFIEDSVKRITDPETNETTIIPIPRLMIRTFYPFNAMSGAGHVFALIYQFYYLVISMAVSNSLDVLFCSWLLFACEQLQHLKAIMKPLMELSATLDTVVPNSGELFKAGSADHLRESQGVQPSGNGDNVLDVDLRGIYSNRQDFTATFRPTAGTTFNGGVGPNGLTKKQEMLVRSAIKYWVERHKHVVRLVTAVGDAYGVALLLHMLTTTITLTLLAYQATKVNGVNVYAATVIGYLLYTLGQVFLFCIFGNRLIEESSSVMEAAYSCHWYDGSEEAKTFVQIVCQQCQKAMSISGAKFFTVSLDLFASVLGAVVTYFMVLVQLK
The experiment is described as follows: whole-cell voltage clamp, HEK293T cells. The class given is cell-based. The note with it: agonist. The source says:
whole-cell voltage clamp, HEK293T cells on AaOR10/Orco (Ae. aegypti OR10 with A. bakeri Orco) | whole-cell currents of AaOR10/Orco are indistinguishable in EC50 and overall dose-response parameters | measure their response to indole and o-cresol, canonical odorants known to activate AaOR10 heteromers

Experiment [2] concerns the target T2, AaOR10 in complex with the Orco from Ae. aegypti (Aedes aegypti, UniProt Q177X3).
T2 construct: gene GPRor10; both subunits from Ae. aegypti, co-expressed in HEK293T cells; stoichiometry not determined; with Odorant receptor coreceptor
T2 sequence (Q177X3 1-375): T1 sequence (Q177X3 1-375)
T2 sequence (Q178U6 1-478 partner): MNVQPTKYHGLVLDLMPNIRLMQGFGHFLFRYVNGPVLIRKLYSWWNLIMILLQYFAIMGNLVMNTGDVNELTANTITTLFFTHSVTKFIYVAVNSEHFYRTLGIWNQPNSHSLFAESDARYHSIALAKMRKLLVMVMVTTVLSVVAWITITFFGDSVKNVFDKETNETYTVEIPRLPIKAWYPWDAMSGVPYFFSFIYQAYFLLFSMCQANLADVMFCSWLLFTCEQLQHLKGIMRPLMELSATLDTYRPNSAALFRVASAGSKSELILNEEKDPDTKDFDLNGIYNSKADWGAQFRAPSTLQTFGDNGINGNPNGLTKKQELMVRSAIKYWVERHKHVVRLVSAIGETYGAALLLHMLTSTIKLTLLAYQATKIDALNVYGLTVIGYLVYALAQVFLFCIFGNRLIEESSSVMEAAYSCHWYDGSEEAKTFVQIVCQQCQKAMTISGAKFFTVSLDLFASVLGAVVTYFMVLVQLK
In words: whole-cell voltage clamp, HEK293T cells. The following applies: agonist. It is filed as cell-based. An excerpt:
whole-cell voltage clamp, HEK293T cells on AaOR10 in complex with the Orco from Ae. aegypti | those obtained with AaOR10 in complex with the Orco from Ae. aegypti | AaOR10 with either A. bakeri (black) or Ae. aegypti Orco (gold)

Experiment [3] deals with T1, AaOR10/Orco (Ae. aegypti OR10 with A. bakeri Orco). In words: cryo-EM structure of complex. The class given is binding. The following applies: 2.9 Å; one site, in the OR10 subunit (S2, S3, S4, S6).
Experiment [4] has as its target Anopheles gambiae odorant receptor OR28 (Anopheles gambiae). The experiment is described as follows: cryo-EM structure; AgOR28 co-expressed with A. bakeri Orco, purified complex; unbound and 2,4,5-trimethylthiazole (TMT)-bound states.
In experiment [5] the target is Aedes aegypti odorant receptor OR10 (Aedes aegypti). The experiment is described as follows: cryo-EM structure; AaOR10/Orco heteromers co-expressed in HEK293 cells (1:1 OR to Orco virus), purified by an affinity tag on the OR subunit, in detergent micelle; unbound and o-cresol-bound states.
Where [6] appears, read: far from saturation at high concentration, limiting goodness of fit.

In general, EC50 refers to the concentration giving half of the maximal effect. High values mean lower potency in that assay, low ones higher potency in that assay.

For the molecule `c1ccc2[nH]ccc2c1` [indole], the EC50 in experiment [1] (Hill coefficient about one) was 1.09 µM; in experiment [2], 1.51 µM.
For `Cc1ccccc1O` [o-cresol], the EC50 in experiment [1] (setting [6]) worked out at 13.3 µM; in experiment [2] (setting [6]), 11.3 µM. In addition, the “cryo-EM structure of complex” value in experiment [3] is on record as “determined the cryo-EM structure of the AaOR10/Orco complex bound to o-cresol”.

B1: Apocrypta bakeri odorant receptor co-receptor Orco (receptor)
chain: T1 sequence (B0FAQ4 1-474 partner)
Regarding B1, the stoichiometry N (Orco subunits per OR subunit) in experiment [4] and in experiment [5] was 3 throughout.
